As a reminder, the IC50 is the concentration needed to halve the response being measured. Low readings indicate inhibition by little substance, high ones a need for much substance. What is called melting point is the temperature of the solid-liquid transition.

Data set [1] has as its target T1, Raf and/or Mek kinase (human c-Raf, GST-MEK1) (Homo sapiens, UniProt P04049+Q02750).
T1 construct: Sf9 insect cell lysate containing full length 6his-tagged recombinant human c-Raf; 6His; host or cells: Sf9 insect cells (c-Raf, used as lysate); E. coli (MEK1-GST, GST-MAPK)
In words: Raf/Mek kinase cascade assay. Type of data set: biochemical. As to conditions: c-Raf dependent activation of GST-MEK and GST-MAPK, phospho-MAPK ELISA; (a)/(b)/(c) = average of two/three/four runs. The procedure:
Raf/Mek Kinase Cascade Assay Procedure
(Specific Activity: ˜200 U/ml). Human Non-active Mek-1-GST and human GST-MAP kinase (recombinant proteins produced in E. coli).
Stock Solutions Raf/Mek Cascade Assay:
• 1. Assay Dilution Buffer (ADB): 20 mM MOPS, pH 7.2, 25 mM β-glycerol phosphate, 5 mM EGTA, 1 mM sodium orthovanadate, 1 mM dithiothreitol; • 2. Magnesium/ATP Cocktail: 500 μM cold ATP and 75 mM magnesium chloride in ADB; • 3. Active Kinase: Human Active c-Raf: Use at 0.4 U per assay point; • 4. Non-active GST-MEK1: Use at 0.1 μg per assay point; and • 5. Non-active GST-p42 MAP Kinase: Use at 1.0 μg per assay point. Stock Solutions ELISA: • 1. TBST-Tris (50 mM, pH 7.5), NaCl (150 mM), Tween-20 (0.05%); • 2. Superblock (Pierce); • 3. Anti-GST Ab (Pharmacia); • 4. Anti-Phospho MAPK (Sigma); and • 5. Anti-Mouse Ab/Europium conjugate (Wallac). Assay Procedure: First Stage: c-Raf Dependent Activation of GST-MEK and GST-MAPK • 1. Add […] of ADB per assay (i.e. per well of a 96 well plate); • 2. Add 10 ml of 0.5 mM cold ATP and 75 mM magnesium chloride in ADB; • 3. Add 2 ml of c-Raf (0.4 U/assay), in conjunction with 1.6 ml non-active MEK1 (0.4 […]/assay); • 4. Add 4 ml of non-active GST-p42 MAP Kinase (1.0 mg/assay); • 5. Incubate for 60 minutes at 30° C. in a shaking incubator; • 6. Transfer this mixture to an anti-GST Ab coated 96 well plate (Nunc Immunosorb plates coated o/n with a-GST, then blocked with Pierce Superblock); • 7. Incubate for 60 minutes at 30° C. in a shaking incubator; • 8. Wash 3× with TBST, add Anti-Phospho MAPK (Sigma) (1:3000); • 9. Incubate for 60 minutes at 30° C. in a shaking incubator; • 10. Wash 3× with TBST, add Anti-Mouse Ab/Europium conjugate (Wallac) (1:500); • 11. Incubate for 60 minutes at 30° C. in a shaking incubator; • 12. Wash 3× with TBST, Read plates in Wallac Victor model Plate Reader; and • 13. Collect data analyze in Excel for single point and IC50 determinations.
Single point assay—% inhibition at […] (% Inhibition=1−cpd·treated sample/untreated control). IC50 determinations—done on compounds from single point assays with >80% inhibition. Typically, the Raf/Mek assay is run at compound concentrations from 10 μM to 1 nM in half log dilutions. (% inhibition is determined for each compound concentration). The results obtained measure Raf and/or Mek kinase inhibition, and for representative compounds of this invention are listed in Table 1.

In data set [2] the test system is BxPC3. In words: Cell based screen for inhibitors of Raf and/or Mek kinase (SRB), BxPC3. The following applies: Homo sapiens, BXPC-3, BxPC3 cells, (a)/(b) = average of two/three runs. The procedure:
[The procedure below names another cell line; the source lists this cell line under the same test.] (§1) Cell Based Screen for Inhibitors of Raf and/or Mek Kinase. Materials
(§2) Cells are plated at 2000 cells per well for cell line LoVo and 1500 cells for cell line CaCo-2 in 96 well plates. Cells are plated in media (200 μl) and allowed to adhere overnight at 37° C. At 24 hours post plating, compounds are added directly at a volume of 0.5 μl. For the qualitative screen (compounds screened at 25 μM) compound is added directly to cells. For the quantitative screen, compound is first diluted in DMSO to generate concentrations of compound or reference standard of: 1, 5, 10 and 25 μM. It is advisable to make the dilutions in an identical 96 well plate so that compounds can be added using a multichannel micropipettor set at 0.5 μl. The cells are then incubated for four days after which the media is removed using a 12 well manifold by first tipping the plate forward at a 45 degree angle and then inserting the manifold in an upright orientation to prevent the tips of the manifold from disturbing cells at the bottom of the plate. 200 μl of normal saline is then added to each well using an 8 well multichannel pipettor, followed by the careful addition of 50 μl of 50% TCA. The plates are then incubated for 2 hours at 4° C., after which the supernatant is removed using the same technique as above and the plated cells are washed twice with 200 μl water. The plates are then air dried and 50 μl of SRB stock solution is carefully added so that the entire bottom of each well is covered. This again can be done using an 8 well multichannel pipettor. The SRB is incubated with fixed cells for 15 minutes at room temperature after which the SRB is removed with the manifold as described above and the plates washed twice with 350 μl of 1% acetic acid per well each time. The plates are then air dried after which the bound SRB is released from protein by the addition of 200 μl of Tris base. Resolubilizing the SRB is aided by placing the plates on a rotator for 15-30 minutes. The absorbance of each well is determined at 550 or 562 nm using a microtiter plate reader.
(§3) Each compound or dilution thereof is performed in triplicate. Outliers are identified by visual inspection of the data. Each plate should have a “0” control (vehicle only).
(§4) Quantitative Assay: A standard curve is constructed by plotting the concentration of compound against the average absorbance calculated at that concentration. A curve is plotted and the concentration at which the curve passes through the 50% the absorbance mark seen in the “0” control well is the IC50 calculated for that compound. Multiple entries for a given compound indicate that it is tested multiple times.

The subject of data set [3] is LoVo. In words: Cell based screen for inhibitors of Raf and/or Mek kinase (SRB), LoVo. The following applies: Homo sapiens, 96 h, LoVo cells, four days incubation, (a)/(b)/(c) = average of two/three/five runs. Also on record: species or system human. The procedure: as §1
Cell Lines: Human adenocarcinoma cell line LoVo, known to be growth inhibited by low nM concentrations of a reference standard inhibitor of Ras and human adenocarcinoma cell line CaCo-2, known to be growth resistant to the same reference compound.
Cell Media: RPMI 1640 with 10% Fetal Bovine Serum supplemented with L-glutamine and Penicillin/Streptomycin.
as §2, §3, §4

Data set [4] concerns the target T2, p60c-src (Homo sapiens, UniProt P12931).
T2 construct: purchased Upstate Biotechnologies
Briefly: Src kinase test procedure (ELISA). Type of data set: biochemical. The following applies: cdc2 substrate peptide, (a) = average of two runs. The procedure:
Src Kinase Test Procedure
Inhibitors of p60^c-src (partially purified preparation purchased from Upstate Biotechnologies) tyrosine kinase activity are analyzed in an Elisa format. The Boehringer Mannheim Tyrosine Kinase Assay Kit (Catalog number 1-534505) with a cdc2 substrate peptide containing Tyr15 is used for the assay. HRP-conjugated anti-phosphotyrosine is used to detect phosphorylated peptide via a color reaction. Conditions recommended by the manufacturer are employed.
Reaction conditions: Five microliter aliquots of each compound prepared fresh at the time of the assay are added as a solution in 10 mM HEPES pH 7.5, 10% DMSO to the reaction well. Thirty-five microliters of reaction mix containing Src, buffer and peptide/bovine serum albumin mix are added to the compound wells and incubated at 30° C. for 10 minutes (reaction buffer: 50 mM Tris HCl pH 7.5, 10 mM MgCl2, 0.1 mM EGTA, 0.5 mM Na3VO4). The reaction is started by addition of 10 microliters of ATP, incubated at 30° C. for 1 hour, and stopped by addition of 20 microliters of 0.5M EDTA. The reaction mixture with the phosphorylated peptide is then transferred to a streptavidin-coated microtiter plate (provided in the kit) and allowed to bind for 20 minutes. Unbound peptide and reaction mixture is decanted and the plate is washed with PBS six times. Horseradish peroxidase-conjugated phosphotyrosine antibody supplied in the kit is incubated with the plate for one hour, then decanted. The plate is again ished with PBS six times. Substrate (provided in the kit) is added and absorbance at 405 nm is measured.
Activity is determined as % inhibition as calculated by the formula: (1−Abs/Abs(max))×100=% inhibition. Where multiple concentrations of the test agent are used, an IC50 (concentration which gives 50% inhibition) could be determined.
Background: An ELISA detects its analyte on a solid surface through an enzyme-linked reagent.

T1 sequence (P04049 whole entry): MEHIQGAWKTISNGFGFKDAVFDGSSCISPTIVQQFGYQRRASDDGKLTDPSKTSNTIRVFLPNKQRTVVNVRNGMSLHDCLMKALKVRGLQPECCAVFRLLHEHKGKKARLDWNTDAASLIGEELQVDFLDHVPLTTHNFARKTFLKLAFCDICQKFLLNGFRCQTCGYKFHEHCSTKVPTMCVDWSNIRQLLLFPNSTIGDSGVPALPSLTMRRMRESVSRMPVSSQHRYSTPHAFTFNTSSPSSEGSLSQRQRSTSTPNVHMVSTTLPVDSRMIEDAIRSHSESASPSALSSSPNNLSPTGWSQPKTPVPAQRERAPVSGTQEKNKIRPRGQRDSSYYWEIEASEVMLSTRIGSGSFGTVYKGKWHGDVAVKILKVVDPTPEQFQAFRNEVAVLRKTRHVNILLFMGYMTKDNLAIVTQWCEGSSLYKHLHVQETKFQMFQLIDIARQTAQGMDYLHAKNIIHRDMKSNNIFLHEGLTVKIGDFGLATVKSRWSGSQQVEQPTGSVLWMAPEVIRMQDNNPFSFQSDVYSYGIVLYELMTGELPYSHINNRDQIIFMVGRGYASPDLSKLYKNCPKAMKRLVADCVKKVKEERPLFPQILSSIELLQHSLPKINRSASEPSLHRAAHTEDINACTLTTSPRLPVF
T1 sequence (Q02750 whole entry): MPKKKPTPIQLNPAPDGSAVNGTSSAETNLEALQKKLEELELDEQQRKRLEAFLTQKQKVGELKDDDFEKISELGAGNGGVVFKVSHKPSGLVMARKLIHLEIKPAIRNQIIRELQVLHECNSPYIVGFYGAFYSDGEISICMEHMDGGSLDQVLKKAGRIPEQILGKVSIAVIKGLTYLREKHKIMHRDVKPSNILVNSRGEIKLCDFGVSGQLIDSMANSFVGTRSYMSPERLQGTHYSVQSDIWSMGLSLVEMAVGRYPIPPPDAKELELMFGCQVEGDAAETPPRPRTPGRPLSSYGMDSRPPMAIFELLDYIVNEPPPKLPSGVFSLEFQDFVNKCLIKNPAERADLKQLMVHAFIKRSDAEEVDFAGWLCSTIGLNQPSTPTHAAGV
T2 sequence (P12931 whole entry): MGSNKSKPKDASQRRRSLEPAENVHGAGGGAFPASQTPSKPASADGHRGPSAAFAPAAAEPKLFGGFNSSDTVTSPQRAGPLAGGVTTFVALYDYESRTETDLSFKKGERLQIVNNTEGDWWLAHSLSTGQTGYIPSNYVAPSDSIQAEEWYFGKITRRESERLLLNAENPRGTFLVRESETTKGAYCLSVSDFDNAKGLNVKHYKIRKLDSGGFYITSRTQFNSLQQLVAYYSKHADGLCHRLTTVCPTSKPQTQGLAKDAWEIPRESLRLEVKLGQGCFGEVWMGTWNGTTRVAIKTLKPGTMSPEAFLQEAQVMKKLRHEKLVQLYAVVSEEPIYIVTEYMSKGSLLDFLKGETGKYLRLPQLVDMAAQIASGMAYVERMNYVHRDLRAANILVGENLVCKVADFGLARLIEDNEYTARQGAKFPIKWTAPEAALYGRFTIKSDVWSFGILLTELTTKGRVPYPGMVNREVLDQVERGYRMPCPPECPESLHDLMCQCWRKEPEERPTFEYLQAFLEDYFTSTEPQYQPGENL

For `COc1cc2c(Nc3ccc(Sc4nccn4C)c(Cl)c3)c(C#N)cnc2cc1N1CCC(N2CCCC2)CC1` [Example 11, 4-({3-chloro-4-[(1-methyl-1H-imidazole-2-yl)thio]phenyl}amino)-6-methoxy-7-(4-pyrrolidin-1-ylpiperidin-1-yl)quinoline-3-carbonitrile], the melting point lay in the range of 225 to 229 °C. Also, the IC50 in data set [1] turned out to be 114 nM. In data set [2], this molecule came in with an IC50 of 42 nM. Moreover, in data set [3], the IC50 was determined as 29 nM. For the same molecule, in data set [4], it took 281 nM to reach half-maximal inhibition (IC50).
`Cn1ccnc1Sc1ccc(Nc2c(C#N)cnc3cc(N4CCC(N5CCCC5)CC4)ccc23)cc1Cl` [Example 16] came in with a melting point of 125 to 130 °C. Also, in data set [1], the IC50 was found to be 35 nM. This molecule also returned an IC50 in data set [2] of 30 nM. In data set [3], this molecule gave an IC50 of 9 nM.
Regarding `CCOc1cc2c(Nc3ccc(Sc4nccn4C)c(Cl)c3)c(C#N)cnc2cc1N1CCC(N2CCCC2)CC1` [Example 18, 4-({3-chloro-4-[(1-methyl-1H-imidazole-2-yl)thio]phenyl}amino)-6-ethoxy-7-(4-pyrrolidin-1-ylpiperidin-1-yl)quinoline-3-carbonitrile], the melting point is 203 to 207 °C. This molecule also returned an IC50 in data set [1] of 75 nM. Besides, in data set [2], 30 nM corresponded to half-maximal inhibition (IC50). This molecule also came in with an IC50 in data set [3] of 27 nM.
In turn, `COc1cc2c(Nc3ccc(Sc4nccn4C)c(Cl)c3)c(C#N)cnc2cc1N1CCC(N2CCN(C)CC2)CC1` [Example 20, 4-({3-Chloro-4-[(1-methyl-1H-imidazole-2-yl)thio]phenyl}amino)-6-methoxy-7-[4-(4-methylpiperazin-1-yl)piperidin-1-yl]quinoline-3-carbonitrile] gave a melting point of 235 to 237 °C. This molecule also registered an IC50 in data set [1] of 293 nM. Moreover, the IC50 in data set [2] stood at 38 nM. Also, the IC50 in data set [3] was found to be 22 nM.
In turn, `CC(=O)N(C(C)=O)c1cc2c(Nc3ccc(Sc4nccn4C)c(Cl)c3)c(C#N)cnc2cc1N1CCC(N2CCCC2)CC1` [Example 28, N-Acetyl-N-[4-[3-chloro-4-(1-methyl-1H-imidazole-2-ylsulfanyl)-phenylamino]-3-cyano-7-(4-pyrrolidin-1-yl-piperidin-1-yl)quinolin-6-yl]acetamide] showed a melting point of 245 to 247 °C. Besides, the IC50 in data set [1] worked out at 2390 nM. Moreover, the IC50 in data set [2] was 8 nM. Also, 14 nM corresponded to half-maximal inhibition in data set [3] (IC50).
In the same order, the values of `CC(=O)Nc1cc2c(Nc3ccc(Sc4nccn4C)c(Cl)c3)c(C#N)cnc2cc1N1CCC(N2CCCC2)CC1` [Example 29, N-[4-({3-Chloro-4-[(1-methyl-1H-imidazole-2-yl)thio]phenyl}amino)-3-cyano-7-(4-pyrrolidin-1-ylpiperidin-1-yl)quinolin-6-yl]acetamide] are 243 to 255 °C, 1640 nM, 8 nM and 4 nM.
The like results for `CNc1cc2c(Nc3ccc(Sc4nccn4C)c(Cl)c3)c(C#N)cnc2cc1N1CCC(N2CCCC2)CC1` [Example 30, 4-({3-Chloro-4-[(1-methyl-1H-imidazole-2-yl)thio]phenyl}amino)-6-(methylamino)-7-(4-pyrrolidin-1-ylpiperidin-1-yl)quinoline-3-carbonitrile] were, in that order, 242 to 250 °C, 220 nM, 30 nM and 14 nM.
The like results for `COc1cc2c(Nc3ccc(Sc4nccn4C)c(Cl)c3)c(C#N)cnc2cc1OCCCN1CCC(N2CCCC2)CC1` [Example 33, 4-{3-Chloro-4-[(1-methyl-1H-imidazole-2-yl)sulfanyl]anilino}-6-methoxy-7-{3-[4-(1-pyrrolidinyl)-1-piperidinyl]propoxy}-3-quinolinecarbonitrile] were, in that order, 196 to 198 °C, 3 nM, 49 nM and 47 nM.

The record behind these values is patent US7767671B2, “3-Quinolinecarbonitrile protein kinase inhibitors” (Wyeth, priority 2004, dated 2010).
